Columns and labels:
[1] = tested on: veratrine-evoked release of glutamate from rat brain slices; assay: tissue or blood; type: cell-based; conditions: P95 limits in parentheses
Procedure: (§1) Compounds of Formula (I) were tested for their effect on veratrine-evoked release of glutamate from rat brain slices according to the protocol described in Epilepsia 27(5): 490-497, 1986. The protocol for testing for inhibition of DHFR activity was a modification of that set out in Biochemical Pharmacology Vol. 20 pp 561-574, 1971.

Rat Liver DHFR = target: T1, Rat Liver DHFR (Rattus norvegicus, UniProt Q920D2); assay: biochemical; conditions: DHFR enzyme activity, P95 limits in parentheses
T1 sequence (Q920D2 1-187): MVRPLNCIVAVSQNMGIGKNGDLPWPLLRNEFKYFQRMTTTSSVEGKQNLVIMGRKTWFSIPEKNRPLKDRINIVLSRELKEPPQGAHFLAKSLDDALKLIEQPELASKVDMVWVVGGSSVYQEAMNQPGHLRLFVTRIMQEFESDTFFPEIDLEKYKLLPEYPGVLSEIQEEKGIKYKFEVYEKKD
Procedure: as §1

[2] = tested on: release of the excitatory amino acid aspartate; conditions: statement in words; Leach et al Epilepsia 27, 490-497 1986; Miller et al 1987; cited from earlier work
[3] = tested on: release of the excitatory amino acid glutamate; conditions: statement in words; Leach et al Epilepsia 27, 490-497 1986; Miller et al 1987; cited from earlier work
[4] = Toxicology, once daily intravenous administration to Wistar rats; conditions: rat, in vivo, dose levels of upto 15 mg/kg/day, read-out: no observed effect dose
Procedure: The compound of Example 1 has been administered intravenously to groups of six male and six female Wistar rats once daily at dose levels of upto 15 mg/kg/day. The no observed effect dose was 2.5 mg/kg/day.

in vivo = assay: in vivo; set-up: species or system dogs; conditions: dog
Procedure: (§2) The compound of Example 2, has been tested in both rats and dogs. In rats the no observed effect dose was 2.5 mg/kg/day and in dogs, the no observed effect dose was 14 mg/kg/day.

Toxicology in rats = conditions: rat, in vivo, read-out: no observed effect dose
Procedure: as §2

[5] = Duration of action / clearance from the central nervous system (statement); conditions: statement in words

SMILES | IC50 [1] | IC50 (Rat Liver DHFR) | also measured
Nc1nc(N)c(-c2cc(Cl)ccc2Cl)c(C(F)(F)F)n1 [Example 28, 2,4-Diamino-5-(2,5-dichlorophenyl)-6-trifluoromethylpyrimidine] | 4.6 µM | 46.1 µM | –
CCc1nc(N)nc(N)c1-c1ccccc1Cl [Example 24, 2,4-Diamino-5-(2-chlorophenyl)-6-ethylpyrimidine] | 2.1 µM | 15.1 µM | –
Nc1nc(N)c(-c2cc(Cl)cc(Cl)c2Cl)c(C(F)(F)F)n1 [Example 4, 2,4-Diamino-5-(2,3,5-trichlorophenyl)-6-trifluoromethylpyrimidine] | 0.33 µM | > 100 µM | –
Nc1nc(N)c(-c2cccc(Cl)c2Cl)c(C(F)(F)F)n1 [Example 14, 2,4-Diamino-5-(2,3-dichlorophenyl)-6-trifluoromethylpyrimidine] | 3.1 µM | > 100 µM | –
Nc1nnc(-c2cccc(Cl)c2Cl)c(N)n1 [lamotrigine, 3,5-diamino-6-(2,3-dichlorophenyl)-1,2,4-triazine] | – | – | inhibition of the release of aspartate [2]: shown to inhibit the release; inhibition of the release of glutamate [3]: shown to inhibit the release
Nc1nc(N)c(-c2ccc(Cl)cc2Cl)c(C(F)(F)F)n1 [Example 25, 2,4-Diamino-5-(2,4-dichlorophenyl)-6-trifluoromethylpyrimidine] | 4.1 µM | > 100 µM | –
Cc1nc(N2CCN(C)CC2)nc(N)c1-c1cc(Cl)cc(Cl)c1Cl [Example 11, 4-Amino-6-methyl-2-(4-methylpiperazin-1-yl)-5-(2,3,5-trichlorophenyl)pyrimidine] | 4.8 µM | > 100 µM | –
Nc1nc(N)c(-c2cccc(Cl)c2Cl)c(COc2ccccc2)n1 [Example 19, 2,4-Diamino-5-(2,3-dichlorophenyl)-6-phenoxymethylpyrimidine] | 2.6 µM | > 100 µM | –
CSCc1nc(N)nc(N)c1-c1cccc(Cl)c1Cl [Example 20, 2,4-Diamino-5-(2,3-dichlorophenyl)-6-methylthiomethylpyrimidine] | 4.2 µM | 17.5 µM | –
Cc1nc(N)nc(N)c1-c1cc(Cl)cc(Cl)c1Cl [Example 6, 2,4-Diamino-5-(2,3,5-trichlorophenyl)-6-methylpyrimidine] | 0.7 µM | 0.51 µM | –
Nc1ncc(-c2cccc(Cl)c2Cl)c(N)n1 [Example 21, 2,4-Diamino-5-(2,3-dichlorophenyl)pyrimidine] | 11.5 µM | 16 µM | –
CN(C)c1nc(N)c(-c2cc(Cl)cc(Cl)c2Cl)c(C(F)(F)F)n1 [Example 8, 4-Amino-2-N,N-dimethylamino-5-(2,3,5-trichlorophenyl)-6-trifluoromethylpyrimidine] | < 10 µM | > 10 µM | –
CN1CCN(c2nc(N)c(-c3cc(Cl)cc(Cl)c3Cl)c(C(F)(F)F)n2)CC1 [Example 1, 4-Amino-2-(4-methylpiperazin-1-yl)-5-(2,3,5-trichlorophenyl)-6-trifluoromethylpyrimidine] | 1.18 µM | > 100 µM | NOAEL [4]: 2.5 mg/kg/day
Nc1ncc(-c2cc(Cl)c([N+](=O)[O-])c(Cl)c2Cl)c(N)n1 [Example 5, 2,4-Diamino-5-(4-nitro-2,3,5-trichlorophenyl)pyrimidine] | 3.5 µM | ~100 µM | –
Nc1ncc(-c2cccc3ccccc23)c(N)n1 [Example 17, 2,4-Diamino-5-(1-naphthyl)pyrimidine] | 2.4 µM | 4.9 µM | –
Nc1nc(N)c(-c2cccc(Cl)c2Cl)c(CF)n1 [Example 18, 2,4-Diamino-5-(2,3-dichlorophenyl)-6-fluoromethylpyrimidine] | < 10 µM | ~100 µM | –
Nc1nc(N2CCOCC2)nc(C(F)(F)F)c1-c1cc(Cl)cc(Cl)c1Cl [Example 7, 4-Amino-2-N-morpholino-5-(2,3,5-trichlorophenyl)-6-trifluoromethylpyrimidine] | < 10 µM | > 10 µM | –
Nc1ncc(-c2cc(Cl)cc(Cl)c2Cl)c(N)n1 [Example 29, 2,4-Diamino-5-(2,3,5-trichlorophenyl)pyrimidine] | 1.57 µM | 0.53 µM | –
Cc1nc(N)nc(N)c1-c1cc(Cl)c([N+](=O)[O-])c(Cl)c1Cl [Example 12, 2,4-diamino-6-methyl-5-(2,3,5-trichloro-4-nitrophenyl) pyrimidine] | < 10 µM | > 100 µM | –
COCc1nc(N)nc(N)c1-c1cc(Cl)cc(Cl)c1Cl [Example 2, 2,4-Diamino-5-(2,3,5-trichlorophenyl)-6-methoxymethylpyrimidine] | 0.56 µM | 33 µM | NOAEL (in vivo): 14 mg/kg/day; NOAEL (Toxicology in rats): 2.5 mg/kg/day; clearance from the central nervous system [5]: cleared from the central nervous system rapidly
Cc1nc(N)nc(N)c1-c1cccc(Cl)c1Cl [Example 15, 2,4-Diamino-5-(2,3-dichlorophenyl)-6-methylpyrimidine] | 2.7 µM | 8.7 µM | –
CN(C)c1ncc(-c2cc(Cl)cc(Cl)c2Cl)c(N)n1 [Example 10, 4-Amino-2-N,N-dimethylamino-5-(2,3,5-trichlorophenyl)pyrimidine] | < 10 µM | > 100 µM | –
COCc1nc(N)nc(N)c1-c1cccc(Cl)c1Cl [Example 16, 2,4-Diamino-5-(2,3-dichlorophenyl)-6-methoxymethylpyrimidine] | 3.2 µM | > 100 µM | –
Nc1nc(N2CCOCC2)ncc1-c1cc(Cl)cc(Cl)c1Cl [Example 9, 4-Amino-2-N-morpholino-5-(2,3,5-trichlorophenyl)-pyrimidine] | < 10 µM | > 100 µM | –
Nc1ncc(-c2ccccc2Cl)c(N)n1 [Example 23, 2,4-Diamino-5-(2-chlorophenyl)pyrimidine] | 8.7 µM | 20.9 µM | –
CN1CCN(c2ncc(-c3ccc(Cl)cc3Cl)c(N)n2)CC1 [Example 27, 2-(4-methylpiperazin-1-yl)-4-amino-5-(2,4-dichlorophenyl)pyrimidine] | ~10 µM | > 100 µM | –
Nc1nc(N)c(-c2ccc(Cl)cc2Cl)c(COCc2ccccc2)n1 [Example 26, 6-Benzyloxymethyl-2,4-diamino-5-(2,4-dichlorophenyl)pyrimidine] | ~3 µM | ~10 µM | –
Cc1nc(N(C)C)nc(N)c1-c1cc(Cl)cc(Cl)c1Cl [Example 13, 4-Amino-2-(N,N-dimethylamino)-6-methyl-5-(2,3,5-trichlorophenyl)pyrimidine] | < 10 µM | > 100 µM | –
Cc1nc(N)nc(N)c1-c1ccccc1Cl [Example 22, 2,4-Diamino-5-(2-chlorophenyl)-6-methyl-pyrimidine] | 2.8 µM | 23.8 µM | –

— US5136080A, “Nitrile compounds” (Burroughs Wellcome Co., priority 1990, dated 1992)
